One compound from patent US20220409617A1, “Drug Formulations and Methods of Treatment for Metabolic Disorders” (The Regents of the University of California, priority 2019, published 2022) can be followed below.

In this experiment the test system is DRP1. The experiment in a line: DRP1 recruitment to mitochondria (DRP1/citrate synthase co-localization) and DRP1 western blot. The following applies: MEFs. The experiment is classed as cell-based, mouse. The method, then:
Mature adipocytes were serum starved for 16 h then treated with vehicle, ceramide (50 or 100 μM), or sphingolipid-like compound 893 (5 or 10 μM) in serum-free media supplemented with 0.2% fatty-acid free BSA for 3 h after which 100 nM insulin was added for 15 min. To determine total DRP1 protein levels, 100,000 MEFs were seeded into a 6-well plate for 16 h, pre-treated for 3 h with vehicle or sphingolipid-like compound 893 (5 μM) followed by a 3 h incubation in 1% BSA+ethanol or BSA-palmitate (250 μM). Cells were washed once with cold PBS, then lysed in cold RIPA buffer (140 mM NaCl, 10 mM Tris pH 8.0, 1% Triton X-100, 0.1% SDS, 1% sodium deoxycholate) with cOmplete™ protease inhibitor (Cat no. 11697498001, Millipore Sigma, St. Louis, Mo.) and phosSTOP™ phosphatase inhibitor (Cat no. 4906837001, Millipore Sigma). Samples were incubated on ice for 10 min and insoluble material removed by centrifugation (9000×g for 10 min at 4° C.). Protein content was quantified in the supernatant using the Pierce™ BCA Protein Assay Kit (Thermo-Fisher Scientific, Waltham, Mass.). Equal amounts of protein were prepared in NuPAGE® LDS Sample Buffer (NP0007, Invitrogen) containing 50 mM DTT, and heated at 70° C. for 10 min. Proteins were resolved on a NuPAGE® 4-12% Bis-Tris protein gel (NP0336, Invitrogen, Carlsbad, Calif.) and subsequently transferred to a nitrocellulose membrane. Membranes were blocked in 5% BSA in TBST for 1 h, then probed with primary antibodies overnight at 4° C. […] Band intensity was quantified using Image Studio Lite V5.2 software (Li-COR).
MEFs were washed twice with PBS and fixed with 4% paraformaldehyde for 10 min at RT. […] NADH/NADPH autofluorescence was detected with 740 nm excitation and 450±50 nm detectors using a Mai Tai two-photon laser. Fluorescence microscopy was performed on a Zeiss LSM 780 confocal using a 63× oil objective with a […] numerical aperture (NA) or using a Nikon TE2000-S inverted epifluorescence microscope with a 100× oil objective (1.3 NA) and a Photometrics CoolSNAP ES2 monochrome CCD camera. […]

Turning to `CCCCCCCCc1ccc([C@H]2CCN[C@@H]2CO)cc1.Cl` [compound 893], the “DRP1 recruitment to mitochondria in response to palmitate” value (893 5 μM or YM201636 800 nM 3 h, then palmitate 250 μM 3 h) is “prevented the recruitment of the GTPase that mediates fission, DRP1, to mitochondrial membranes”. Further, for the setting “893 5 μM, palmitate 250 μM, western blot”, the “DRP1 protein expression levels” value is “without affecting DRP1 protein expression levels”.
